Laboratory results reported in the supplement of paper PMC13380429.

Columns and labels:
Conditions in all cases: 72 h
Caco-2 [1] = test: cell viability relative to DMSO; higher = less toxic
Calu-3 [2] = test: as above
HepG2 [3] = test: as above
U2OS [4] = test: as above
Vero E6 [5] = test: as above
HepG2 [6] = test: relative viability EC50 (midpoint between 100% and the lowest measured viability); higher = less toxic
U2OS [7] = test: as above
Vero E6 [8] = test: as above
Caco-2 [9] = test: drug sensitivity score (DSS) for viability; higher = more toxic; extreme values may be limits of the assay
Calu-3 [10] = test: as above
HepG2 [11] = test: as above
U2OS [12] = test: as above
Vero E6 [13] = test: as above
Caco-2 [14] = test: relative viability EC50 (midpoint between 100% and the lowest measured viability); higher = less toxic

## CCN1CCN(Cc2ccc(Nc3ncc(F)c(-c4cc(F)c5nc(C)n(C(C)C)c5c4)n3)nc2)CC1 [abemaciclib]
Caco-2 [1]; 1 nM
  cell viability: 109%
Caco-2 [1]; 10 nM
  cell viability: 97.2%
Caco-2 [1]; 100 nM
  cell viability: 90.7%
Caco-2 [1]; 1000 nM
  cell viability: 78.8%
Caco-2 [1]; 10000 nM
  cell viability: 67.8%
Calu-3 [2]; 1 nM
  cell viability: 106%
Calu-3 [2]; 10 nM
  cell viability: 108%
Calu-3 [2]; 100 nM
  cell viability: 89.4%
Calu-3 [2]; 1000 nM
  cell viability: 63%
Calu-3 [2]; 10000 nM
  cell viability: 74.7%
HepG2 [3]; 1 nM
  cell viability: 101%
HepG2 [3]; 10 nM
  cell viability: 94.8%
HepG2 [3]; 100 nM
  cell viability: 84.1%
HepG2 [3]; 1000 nM
  cell viability: 47.1%
HepG2 [3]; 10000 nM
  cell viability: 0.9%
U2OS [4]; 1 nM
  cell viability: 107%
U2OS [4]; 10 nM
  cell viability: 107%
U2OS [4]; 100 nM
  cell viability: 108%
U2OS [4]; 1000 nM
  cell viability: 87.6%
U2OS [4]; 10000 nM
  cell viability: 0.1%
Vero E6 [5]; 1 nM
  cell viability: 101%
Vero E6 [5]; 10 nM
  cell viability: 100%
Vero E6 [5]; 100 nM
  cell viability: 95.3%
Vero E6 [5]; 1000 nM
  cell viability: 77.9%
Vero E6 [5]; 10000 nM
  cell viability: 38%
HepG2 [6]
  relative viability EC50: 0.741 µM
U2OS [7]
  relative viability EC50: 2.16 µM
Vero E6 [8]
  relative viability EC50: 1.35 µM
Caco-2 [9]
  drug sensitivity score: 4.2
Calu-3 [10]
  drug sensitivity score: 8.1
HepG2 [11]
  drug sensitivity score: 12.5
U2OS [12]
  drug sensitivity score: 7.6
Vero E6 [13]
  drug sensitivity score: 6.1

## CCc1cc2c(cc1N1CCC(N3CCOCC3)CC1)C(C)(C)c1[nH]c3cc(C#N)ccc3c1C2=O [alectinib]
Caco-2 [1]; 1 nM
  cell viability: 98.7%
Caco-2 [1]; 10 nM
  cell viability: 96.8%
Caco-2 [1]; 100 nM
  cell viability: 110%
Caco-2 [1]; 1000 nM
  cell viability: 103%
Caco-2 [1]; 10000 nM
  cell viability: 106%
HepG2 [3]; 1 nM
  cell viability: 101%
HepG2 [3]; 10 nM
  cell viability: 99.9%
HepG2 [3]; 100 nM
  cell viability: 104%
HepG2 [3]; 1000 nM
  cell viability: 100%
HepG2 [3]; 10000 nM
  cell viability: 75.9%
U2OS [4]; 1 nM
  cell viability: 102%
U2OS [4]; 10 nM
  cell viability: 100%
U2OS [4]; 100 nM
  cell viability: 102%
U2OS [4]; 1000 nM
  cell viability: 95.9%
U2OS [4]; 10000 nM
  cell viability: 102%
Vero E6 [5]; 1 nM
  cell viability: 96%
Vero E6 [5]; 10 nM
  cell viability: 94.3%
Vero E6 [5]; 100 nM
  cell viability: 96.1%
Vero E6 [5]; 1000 nM
  cell viability: 93.7%
Vero E6 [5]; 10000 nM
  cell viability: 89%
Caco-2 [14]
  relative viability EC50: > 10 µM
HepG2 [6]
  relative viability EC50: > 10 µM
U2OS [7]
  relative viability EC50: > 10 µM
Vero E6 [8]
  relative viability EC50: > 10 µM
Caco-2 [9]
  drug sensitivity score: 0
HepG2 [11]
  drug sensitivity score: 0.9
U2OS [12]
  drug sensitivity score: 0
Vero E6 [13]
  drug sensitivity score: 0

## COc1c(O)cc2c(c1O)[C@@H]1O[C@H](CO)[C@@H](O)[C@H](O)[C@H]1OC2=O [bergenin]
Caco-2 [1]; 1 nM
  cell viability: 80.5%
Caco-2 [1]; 10 nM
  cell viability: 106%
Caco-2 [1]; 100 nM
  cell viability: 80.2%
Caco-2 [1]; 1000 nM
  cell viability: 83.1%
Caco-2 [1]; 10000 nM
  cell viability: 80.5%
HepG2 [3]; 1 nM
  cell viability: 108%
HepG2 [3]; 10 nM
  cell viability: 79.5%
HepG2 [3]; 100 nM
  cell viability: 98.8%
HepG2 [3]; 1000 nM
  cell viability: 88.8%
HepG2 [3]; 10000 nM
  cell viability: 96.1%
U2OS [4]; 1 nM
  cell viability: 96.7%
U2OS [4]; 10 nM
  cell viability: 97.8%
U2OS [4]; 100 nM
  cell viability: 95.2%
U2OS [4]; 1000 nM
  cell viability: 97.7%
U2OS [4]; 10000 nM
  cell viability: 97.5%
Vero E6 [5]; 1 nM
  cell viability: 106%
Vero E6 [5]; 10 nM
  cell viability: 103%
Vero E6 [5]; 100 nM
  cell viability: 103%
Vero E6 [5]; 1000 nM
  cell viability: 90.5%
Vero E6 [5]; 10000 nM
  cell viability: 101%
Caco-2 [14]
  relative viability EC50: > 10 µM
HepG2 [6]
  relative viability EC50: > 10 µM
U2OS [7]
  relative viability EC50: > 10 µM
Vero E6 [8]
  relative viability EC50: > 10 µM
Caco-2 [9]
  drug sensitivity score: 4.5
HepG2 [11]
  drug sensitivity score: 0
U2OS [12]
  drug sensitivity score: 0
Vero E6 [13]
  drug sensitivity score: 0

## O=C(O)c1cc(=O)c2c(OCC(O)COc3cccc4oc(C(=O)O)cc(=O)c34)cccc2o1 [cromoglicic-acid]
Caco-2 [1]; 1 nM
  cell viability: 97%
Caco-2 [1]; 10 nM
  cell viability: 100%
Caco-2 [1]; 100 nM
  cell viability: 98.6%
Caco-2 [1]; 1000 nM
  cell viability: 102%
Caco-2 [1]; 10000 nM
  cell viability: 92.3%
HepG2 [3]; 1 nM
  cell viability: 101%
HepG2 [3]; 10 nM
  cell viability: 95.3%
HepG2 [3]; 100 nM
  cell viability: 104%
HepG2 [3]; 1000 nM
  cell viability: 105%
HepG2 [3]; 10000 nM
  cell viability: 101%
U2OS [4]; 1 nM
  cell viability: 96.4%
U2OS [4]; 10 nM
  cell viability: 99.4%
U2OS [4]; 100 nM
  cell viability: 98.4%
U2OS [4]; 1000 nM
  cell viability: 103%
U2OS [4]; 10000 nM
  cell viability: 96.9%
Vero E6 [5]; 1 nM
  cell viability: 100%
Vero E6 [5]; 10 nM
  cell viability: 101%
Vero E6 [5]; 100 nM
  cell viability: 101%
Vero E6 [5]; 1000 nM
  cell viability: 96.6%
Vero E6 [5]; 10000 nM
  cell viability: 100%
Caco-2 [14]
  relative viability EC50: > 10 µM
HepG2 [6]
  relative viability EC50: > 10 µM
U2OS [7]
  relative viability EC50: > 10 µM
Vero E6 [8]
  relative viability EC50: > 10 µM
Caco-2 [9]
  drug sensitivity score: 0
HepG2 [11]
  drug sensitivity score: 0
U2OS [12]
  drug sensitivity score: 0
Vero E6 [13]
  drug sensitivity score: 0

## O=C(CCCN1CC=C(n2c(=O)[nH]c3ccccc32)CC1)c1ccc(F)cc1 [droperidol]
HepG2 [3]; 1 nM
  cell viability: 116%
HepG2 [3]; 10 nM
  cell viability: 113%
HepG2 [3]; 100 nM
  cell viability: 106%
HepG2 [3]; 1000 nM
  cell viability: 108%
HepG2 [3]; 10000 nM
  cell viability: 89.1%
HepG2 [6]
  relative viability EC50: > 10 µM
HepG2 [11]
  drug sensitivity score: 0

## COc1ccc(-c2oc3c(CC=C(C)C)c(O)cc(O)c3c(=O)c2O)cc1 [icaritin]
Vero E6 [5]; 1 nM
  cell viability: 92.9%
Vero E6 [5]; 10 nM
  cell viability: 98.9%
Vero E6 [5]; 100 nM
  cell viability: 96.7%
Vero E6 [5]; 1000 nM
  cell viability: 93.3%
Vero E6 [5]; 10000 nM
  cell viability: 107%
Vero E6 [8]
  relative viability EC50: > 10 µM
Vero E6 [13]
  drug sensitivity score: 0

## O.O.O.O.O=C([O-])CC(O)(CC(=O)[O-])C(=O)[O-].[Li+].[Li+].[Li+] [lithium-citrate]
Calu-3 [10]
  drug sensitivity score: 0
U2OS [12]
  drug sensitivity score: 0
Vero E6 [13]
  drug sensitivity score: 0

## O=C(O)[C@H](O)c1ccccc1 [mandelic-acid]
Caco-2 [1]; 1 nM
  cell viability: 91.9%
Caco-2 [1]; 10 nM
  cell viability: 84.2%
Caco-2 [1]; 100 nM
  cell viability: 104%
Caco-2 [1]; 1000 nM
  cell viability: 94.4%
Caco-2 [1]; 10000 nM
  cell viability: 91.6%
HepG2 [3]; 1 nM
  cell viability: 110%
HepG2 [3]; 10 nM
  cell viability: 96.7%
HepG2 [3]; 100 nM
  cell viability: 103%
HepG2 [3]; 1000 nM
  cell viability: 96.4%
HepG2 [3]; 10000 nM
  cell viability: 102%
U2OS [4]; 1 nM
  cell viability: 98.7%
U2OS [4]; 10 nM
  cell viability: 100%
U2OS [4]; 100 nM
  cell viability: 99.3%
U2OS [4]; 1000 nM
  cell viability: 106%
U2OS [4]; 10000 nM
  cell viability: 94.8%
Vero E6 [5]; 1 nM
  cell viability: 100%
Vero E6 [5]; 10 nM
  cell viability: 99.1%
Vero E6 [5]; 100 nM
  cell viability: 93.8%
Vero E6 [5]; 1000 nM
  cell viability: 97.3%
Vero E6 [5]; 10000 nM
  cell viability: 98.9%
Caco-2 [14]
  relative viability EC50: > 10 µM
HepG2 [6]
  relative viability EC50: > 10 µM
U2OS [7]
  relative viability EC50: > 10 µM
Vero E6 [8]
  relative viability EC50: > 10 µM
Caco-2 [9]
  drug sensitivity score: 0
HepG2 [11]
  drug sensitivity score: 0
U2OS [12]
  drug sensitivity score: 0
Vero E6 [13]
  drug sensitivity score: 0

## CN1C(=O)N(C)C2C1N(C)C(=O)N2C (stereo unspecified) [mebicar]
Caco-2 [1]; 1 nM
  cell viability: 101%
Caco-2 [1]; 10 nM
  cell viability: 106%
Caco-2 [1]; 100 nM
  cell viability: 98.5%
Caco-2 [1]; 1000 nM
  cell viability: 97.9%
Caco-2 [1]; 10000 nM
  cell viability: 95.8%
HepG2 [3]; 1 nM
  cell viability: 110%
HepG2 [3]; 10 nM
  cell viability: 107%
HepG2 [3]; 100 nM
  cell viability: 114%
HepG2 [3]; 1000 nM
  cell viability: 97.9%
HepG2 [3]; 10000 nM
  cell viability: 92.2%
U2OS [4]; 1 nM
  cell viability: 104%
U2OS [4]; 10 nM
  cell viability: 104%
U2OS [4]; 100 nM
  cell viability: 99.8%
U2OS [4]; 1000 nM
  cell viability: 106%
U2OS [4]; 10000 nM
  cell viability: 102%
Caco-2 [14]
  relative viability EC50: > 10 µM
HepG2 [6]
  relative viability EC50: > 10 µM
U2OS [7]
  relative viability EC50: > 10 µM
Caco-2 [9]
  drug sensitivity score: 0
HepG2 [11]
  drug sensitivity score: 0
U2OS [12]
  drug sensitivity score: 0

## CC(CNC(=O)c1cccnc1)NC(=O)c1cccnc1 (stereo unspecified) [nicaraven]
Caco-2 [1]; 1 nM
  cell viability: 97.3%
Caco-2 [1]; 10 nM
  cell viability: 103%
Caco-2 [1]; 100 nM
  cell viability: 94.9%
Caco-2 [1]; 1000 nM
  cell viability: 97.6%
Caco-2 [1]; 10000 nM
  cell viability: 89.4%
HepG2 [3]; 1 nM
  cell viability: 94.7%
HepG2 [3]; 10 nM
  cell viability: 106%
HepG2 [3]; 100 nM
  cell viability: 90.8%
HepG2 [3]; 1000 nM
  cell viability: 101%
HepG2 [3]; 10000 nM
  cell viability: 98.9%
U2OS [4]; 1 nM
  cell viability: 97%
U2OS [4]; 10 nM
  cell viability: 97.2%
U2OS [4]; 100 nM
  cell viability: 98.7%
U2OS [4]; 1000 nM
  cell viability: 99.8%
U2OS [4]; 10000 nM
  cell viability: 92.1%
Vero E6 [5]; 1 nM
  cell viability: 93.8%
Vero E6 [5]; 10 nM
  cell viability: 99.1%
Vero E6 [5]; 100 nM
  cell viability: 101%
Vero E6 [5]; 1000 nM
  cell viability: 97.3%
Vero E6 [5]; 10000 nM
  cell viability: 97.7%
Caco-2 [14]
  relative viability EC50: > 10 µM
HepG2 [6]
  relative viability EC50: > 10 µM
U2OS [7]
  relative viability EC50: > 10 µM
Vero E6 [8]
  relative viability EC50: > 10 µM
Caco-2 [9]
  drug sensitivity score: 0
HepG2 [11]
  drug sensitivity score: 0
U2OS [12]
  drug sensitivity score: 0
Vero E6 [13]
  drug sensitivity score: 0
